Experimental data from paper doi:10.1101/2024.06.03.597093v3 (biorxiv, 2024).
Like-named read-outs stand apart in the source and are kept apart here.

Tests used:
β2AR-NlucC (β2AR) [1] = biological target: T1, β2AR-NlucC (β2AR) (Homo sapiens, UniProt P07550); test: cell-based; conditions: HEK-293T, read-out: CRISPR_mGs Emax
β2AR-NlucC (β2AR) [2] = biological target: T1, β2AR-NlucC (β2AR); test: cell-based; conditions: HEK-293T, read-out: Mini-G Protein Recruitment / Emax (%) ± SEM
β2AR-NlucC (CRISPR) = β2AR-NlucC (CRISPR) (Homo sapiens, UniProt P07550); test: cell-based; conditions: HEK-293T, read-out: CRISPR_receptor Emax
Chain of β2AR-NlucC (CRISPR) (P07550 whole entry): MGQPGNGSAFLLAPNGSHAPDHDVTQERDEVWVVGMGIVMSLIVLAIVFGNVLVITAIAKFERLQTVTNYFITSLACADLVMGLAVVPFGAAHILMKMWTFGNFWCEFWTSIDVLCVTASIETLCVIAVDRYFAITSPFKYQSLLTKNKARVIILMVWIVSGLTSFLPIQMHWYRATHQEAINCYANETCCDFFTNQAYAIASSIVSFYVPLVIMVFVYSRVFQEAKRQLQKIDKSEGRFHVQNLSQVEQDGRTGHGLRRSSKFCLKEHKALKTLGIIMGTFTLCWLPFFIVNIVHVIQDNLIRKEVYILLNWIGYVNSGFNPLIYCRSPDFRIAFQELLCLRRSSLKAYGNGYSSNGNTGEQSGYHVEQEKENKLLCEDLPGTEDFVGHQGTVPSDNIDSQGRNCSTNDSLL

β1AR-NlucC (CRISPR) = β1AR-NlucC (CRISPR) (Homo sapiens, UniProt P08588); conditions: CRISPR receptor; relative to adrenaline; agonist
Chain of β1AR-NlucC (CRISPR) (P08588 whole entry): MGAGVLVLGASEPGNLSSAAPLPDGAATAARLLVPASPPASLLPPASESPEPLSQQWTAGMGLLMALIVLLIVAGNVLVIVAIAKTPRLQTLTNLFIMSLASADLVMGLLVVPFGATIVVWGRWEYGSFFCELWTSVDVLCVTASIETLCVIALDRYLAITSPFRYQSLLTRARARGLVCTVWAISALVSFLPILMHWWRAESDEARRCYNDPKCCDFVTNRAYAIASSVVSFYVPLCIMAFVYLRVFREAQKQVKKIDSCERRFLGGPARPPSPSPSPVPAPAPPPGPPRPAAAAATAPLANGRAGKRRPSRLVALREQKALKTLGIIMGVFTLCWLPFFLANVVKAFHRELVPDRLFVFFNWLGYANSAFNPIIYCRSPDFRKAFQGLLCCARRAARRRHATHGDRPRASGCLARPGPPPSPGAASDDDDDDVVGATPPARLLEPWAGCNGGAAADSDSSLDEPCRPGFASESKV

T1 sequence (P07550 whole entry): as the sequence (P07550 whole entry) above

Emax (β2AR-NlucC (β2AR) [1]): 51 ± 4%
Emax (β2AR-NlucC (β2AR) [2]): 85 ± 2%
Emax (β2AR-NlucC (CRISPR)): 61 ± 7%
CRISPR_receptor Emax (β1AR-NlucC (CRISPR)): 109 ± 7%
Structure (SMILES): NC[C@H](O)c1ccc(O)c(O)c1 [noradrenaline]
